For 26 compounds, IC50 results are on record in patent US20220135591A1, “HETEROCYCLIC COMPOUNDS AS INHIBITORS OF MONOACYLGLYCEROL LIPASE (MAGL)” (Hoffmann-La Roche Inc., priority 2019, published 2022).

The test concerns the target T1, MAGL (recombinant wild-type) (Homo sapiens, UniProt Q99685).
T1 sequence (Q99685 1-303): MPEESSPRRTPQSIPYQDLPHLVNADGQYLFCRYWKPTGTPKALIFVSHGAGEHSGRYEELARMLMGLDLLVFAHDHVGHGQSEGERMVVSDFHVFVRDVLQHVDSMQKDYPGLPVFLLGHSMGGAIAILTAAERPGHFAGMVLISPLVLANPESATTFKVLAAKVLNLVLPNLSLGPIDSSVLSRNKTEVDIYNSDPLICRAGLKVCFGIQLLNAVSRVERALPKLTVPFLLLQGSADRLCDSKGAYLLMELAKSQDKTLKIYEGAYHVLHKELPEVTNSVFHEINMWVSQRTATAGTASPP
The test can be described thus: 4-NPA assay: MAGL inhibitory activity by hydrolysis of 4-nitrophenylacetate, absorbance at 405 nm. Conditions: 4-NPA assay (values without footnote [b]). Format: biochemical. The protocol: Compounds were profiled for MAGL inhibitory activity by measuring the enzymatic activity of MAGL by following the hydrolysis of 4-nitrophenylacetate resulting in 4-nitrophenol, which absorbs at 405-412 nm (G. G. Muccioli, G. Labar, D. M. Lambert, Chem. Bio. Chem. 2008, 9, 2704-2710). This assay is hereinafter abbreviated “4-NPA assay”.
The assay was carried out in 384 well assay plates (black with clear bottom, non-binding surface treated, Corning Ref. 3655) in a total volume of 40 μL. Compound dilutions were made in 100% DMSO (VWR Chemicals 23500.297) in a polypropylene plate in 3-fold dilution steps to give a final concentration range in the assay from 25 μM to 1.7 nM. 1 μL compound dilutions (100% DMSO) were added to 19 μL MAGL (recombinant wild-type) in assay buffer (50 mM TRIS (GIBCO, 15567-027), 1 mM EDTA (Fluka, 03690-100 mL)). The plate was shaked for 1 min at 2000 rpm (Variomag Teleshake) and then incubated for 15 min at RT. To start the reaction, 20 μL 4-Nitrophenlyacetate (Sigma N-8130) in assay buffer with 6% EtOH was added. The final concentrations in the assay were 1 nM MAGL and 300 μM 4-Nitrophenylacetate. After shaking (1 min, 2000 rpm) and 5 min incubation at RT, the absorbance at 405 nm was measured for a first time (Molecular Devices, SpectraMax Paradigm). A second measurement was then done after incubation for 80 min at RT. From the two measurements, the slope was calculated by subtracting the first from the second measurement.

With `CC(OC1CN(c2ncc(C(=O)N3CCN(c4nc5nc(Cl)ccc5o4)CC3)cc2F)C1)C(F)(F)F` (centres unmarked) [Example 229, (4-(5-chlorooxazolo[4,5-b]pyridin-2-yl)piperazin-1-yl)(5-fluoro-6-(3-((1,1,1-trifluoropropan-2-yl)oxy)azetidin-1-yl)pyridin-3-yl)methanone], the IC50 turned out to be 0.035 µM.
Consider `CC(C)(CF)c1nnc(-c2ccc(C(=O)N3CCN(c4nc5nc(Cl)ccc5o4)CC3)cc2)o1` [Example 34, [4-(5-chlorooxazolo[4,5-b]pyridin-2-yl)piperazin-1-yl]-[4-[5-(2-fluoro-1,1-dimethyl-ethyl)-1,3,4-oxadiazol-2-yl]phenyl]methanone; 2,2,2-trifluoroacetic acid], for which the IC50 is 0.176 µM.
With `Cc1ccc2oc(N3CCN(C(=O)c4ccc(N5CC(OC(C)C(F)(F)F)C5)cc4Cl)CC3)nc2n1` (centres unmarked) [Example 213, (2-chloro-4-(3-((1,1,1-trifluoropropan-2-yl)oxy)azetidin-1-yl)phenyl)(4-(5-methyloxazolo[4,5-b]pyridin-2-yl)piperazin-1-yl)methanone], the IC50 came out at 0.099 µM.
The figure for `Cc1ccc2oc(N3CCN(C(=O)c4ccc(-c5noc(C(C)(C)C)n5)cc4)CC3)nc2n1` [Example 4, (4-(5-(tert-butyl)-1,2,4-oxadiazol-3-yl)phenyl)(4-(5-methyloxazolo[4,5-b]pyridin-2-yl)piperazin-1-yl)methanone] is 0.027 µM; for `Cc1ccc2oc(N3CCN(C(=O)c4cc(Cl)cc(N5CCS(=O)(=O)CC5)c4)CC3)nc2n1` [Example 175, [3-chloro-5-(1,1-dioxo-1,4-thiazinan-4-yl)phenyl]-[4-(5-methyl-[1,3]oxazolo[4,5-b]pyridin-2-yl)piperazin-1-yl]methanone] it is 1.52 µM.
With `Cc1ccc2oc(N3CCN(C(=O)c4cnc(N5CC(OC(C)C(F)(F)F)C5)c(Cl)c4)CC3)nc2n1` (centres unmarked) [Example 226, (5-chloro-6-(3-((1,1,1-trifluoropropan-2-yl)oxy)azetidin-1-yl)pyridin-3-yl)(4-(5-methyloxazolo[4,5-b]pyridin-2-yl)piperazin-1-yl)methanone] the figure was 0.038 µM.
With `CC(C)(C)Cc1nc(-c2ccc(C(=O)N3CCN(c4nc5nccc(Cl)c5o4)CC3)cc2)no1` [Example 9, (4-(7-chlorooxazolo[4,5-b]pyridin-2-yl)piperazin-1-yl)(4-(5-neopentyl-1,2,4-oxadiazol-3-yl)phenyl)methanone] the figure was 0.027 µM; with `CC1(Cn2ncnc2-c2ccc(C(=O)N3CCN(c4nc5nc(Cl)ccc5o4)CC3)cc2)CC1` [Example 50, [4-(5-chlorooxazolo[4,5-b]pyridin-2-yl)piperazin-1-yl]-[4-[2-[(1-methylcyclopropyl)methyl]-1,2,4-triazol-3-yl]phenyl]methanone], 4.23 µM.
In the case of `Cc1ccc2oc(N3CCN(C(=O)c4ccc(-c5noc(C(C)(C)C)n5)c(C)c4)CC3)nc2n1` [Example 56, [4-(5-tert-butyl-1,2,4-oxadiazol-3-yl)-3-methyl-phenyl]-[4-(5-methyloxazolo[4,5-b]pyridin-2-yl)piperazin-1-yl]methanone], the IC50 turned out to be 0.011 µM.
With `CC1(Cc2nc(-c3ccc(C(=O)N4CCN(c5nc6nc(Cl)ccc6o5)CC4)cc3)no2)CC1` [Example 40, [4-(5-chlorooxazolo[4,5-b]pyridin-2-yl)piperazin-1-yl]-[4-[5-[(1-methylcyclopropyl)methyl]-1,2,4-oxadiazol-3-yl]phenyl]methanone] the figure was 0.006 µM; with `O=C(c1ccc(N2CC(Oc3ccccc3)C2)cc1)N1CCN(c2nc3ncccc3o2)CC1` [Example 196, (4-(oxazolo[4,5-b]pyridin-2-yl)piperazin-1-yl)(4-(3-phenoxyazetidin-1-yl)phenyl)methanone], 0.441 µM; with `O=C(c1ccc(-c2noc(C3(F)CC3)n2)cc1)N1CCN(c2nc3nc(Cl)ccc3o2)CC1` [Example 26, [4-(5-chlorooxazolo[4,5-b]pyridin-2-yl)piperazin-1-yl]-[4-[5-(1-fluorocyclopropyl)-1,2,4-oxadiazol-3-yl]phenyl]methanone], 0.206 µM.
With `Cc1ccc2oc(N3CCN(C(=O)c4ccc(-c5nc(C(C)(C)C)no5)cc4)CC3)nc2n1` [Example 38, [4-(3-tert-butyl-1,2,4-oxadiazol-5-yl)phenyl]-[4-(5-methyloxazolo[4,5-b]pyridin-2-yl)piperazin-1-yl]methanone] the figure was 0.045 µM; with `CCOC1(C)CN(c2ccc(C(=O)N3CCN(c4nc5nc(Cl)ccc5o4)CC3)cc2)C1` [Example 209, (4-(5-chlorooxazolo[4,5-b]pyridin-2-yl)piperazin-1-yl)(4-(3-ethoxy-3-methylazetidin-1-yl)phenyl)methanone], 0.235 µM; with `O=C(c1ccc(-c2noc(C3(CF)CC3)n2)cc1)N1CCN(c2nc3nc(Cl)ccc3o2)CC1` [Example 37, [4-(5-chlorooxazolo[4,5-b]pyridin-2-yl)piperazin-1-yl]-[4-[5-[1-(fluoromethyl)cyclopropyl]-1,2,4-oxadiazol-3-yl]phenyl]methanone], 0.101 µM.
The figure for `Cc1ccc2oc(N3CCN(C(=O)c4ccc5nc(N6CCCC6)oc5c4)CC3)nc2n1` [Example 3, (4-(5-methyloxazolo[4,5-b]pyridin-2-yl)piperazin-1-yl)(2-(pyrrolidin-1-yl)benzo[d]oxazol-6-yl)methanone] is 2.33 µM.
With `Cc1ccc2oc(N3CCN(C(=O)c4cnc(N5CC(OC(C)C(F)(F)F)C5)nc4)CC3)nc2n1` (centres unmarked) [Example 219, (4-(5-methyloxazolo[4,5-b]pyridin-2-yl)piperazin-1-yl)(2-(3-((1,1,1-trifluoropropan-2-yl)oxy)azetidin-1-yl)pyrimidin-5-yl)methanone], the IC50 came to 0.22 µM.
On to `CC1CN(C(=O)c2ccc(-c3noc(C(C)(C)C)n3)cc2)CCN1c1nc2nc(Cl)ccc2o1` (centres unmarked) [Example 46, [4-(5-tert-butyl-1,2,4-oxadiazol-3-yl)phenyl]-[4-(5-chlorooxazolo[4,5-b]pyridin-2-yl)-3-methyl-piperazin-1-yl]methanone], for which the IC50 worked out at 0.028 µM.
For `Cc1ccc2oc(N3CCN(C(=O)c4cnc(N5CCC6(C5)CC6(F)F)c(F)c4)CC3)nc2n1` (centres unmarked) [Example 228, (6-(1,1-difluoro-5-azaspiro[2.4]heptan-5-yl)-5-fluoropyridin-3-yl)(4-(5-methyloxazolo[4,5-b]pyridin-2-yl)piperazin-1-yl)methanone], the IC50 was found to be 0.152 µM.
With `CC1(COc2ccc(C(=O)N3CCN(c4nc5nc(Cl)ccc5o4)CC3)cc2F)CC1` [Example 69, [4-(5-chlorooxazolo[4,5-b]pyridin-2-yl)piperazin-1-yl]-[3-fluoro-4-[(1-methylcyclopropyl)methoxy]phenyl]methanone] the figure was 0.108 µM; with `Cc1ccc2oc(N3CCN(C(=O)c4ccc(-c5nnc(C(C)(C)CF)o5)cc4)CC3)nc2n1` [Example 33, [4-[5-(2-fluoro-1,1-dimethyl-ethyl)-1,3,4-oxadiazol-2-yl]phenyl]-[4-(5-methyloxazolo[4,5-b]pyridin-2-yl)piperazin-1-yl]methanone], 0.498 µM.
With `CC(=O)N1CCN(c2cc(Cl)cc(C(=O)N3CCN(c4nc5nc(C)ccc5o4)CC3)c2)CC1` [Example 176, 1-[4-[3-chloro-5-[4-(5-methyl-[1,3]oxazolo[4,5-b]pyridin-2-yl)piperazine-1-carbonyl]phenyl]piperazin-1-yl]ethanone], the IC50 is 4.15 µM.
With `Cc1ccc2oc(N3CCN(C(=O)c4ccc(N5CC6(CCCO6)C5)cc4)CC3)nc2n1` [Example 194, (4-(5-oxa-2-azaspiro[3.4]octan-2-yl)phenyl)(4-(5-methyloxazolo[4,5-b]pyridin-2-yl)piperazin-1-yl)methanone] the figure was 0.486 µM; with `Cc1ccc2oc(N3CCN(C(=O)c4cnc(OCC5(C)CC5)c(Cl)c4)CC3)nc2n1` [Example 146, (5-chloro-6-((1-methylcyclopropyl)methoxy)pyridin-3-yl)(4-(5-methyloxazolo[4,5-b]pyridin-2-yl)piperazin-1-yl)methanone], 0.135 µM.
`Cc1ccc2oc(N3CCN(C(=O)c4ccc(-c5ncn(CC(C)(C)C)n5)cc4)CC3)nc2n1` [Example 28, [4-[1-(2,2-dimethylpropyl)-1,2,4-triazol-3-yl]phenyl]-[4-(5-methyloxazolo[4,5-b]pyridin-2-yl)piperazin-1-yl]methanone]: the IC50 amounted to 0.012 µM.
Regarding `Cc1ccc2oc(N3CCN(C(=O)c4ccc(OCC5(C)CC5)c(Cl)c4)CC3)nc2n1` [Example 66, [3-chloro-4-[(1-methylcyclopropyl)methoxy]phenyl]-[4-(5-methyloxazolo[4,5-b]pyridin-2-yl)piperazin-1-yl]methanone], the IC50 was determined as 0.087 µM.

The IC50 is the concentration that inhibits the measured activity by half.
